Measured values from the supplement of paper PMC4862054.

How the values were obtained:
Settings in all cases: 72 h
CAL-148 [1] = tested on: CAL-148
Outline: (§1)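 EC50 was fitted from dose-response curves and censored at the highest concentration tested. To build those curves, breast cancer cell lines (20 µl suspension) were seeded into 384-well plates containing compound at 5 concentrations in 10-fold steps over a compound-specific 10,000-fold range and incubated for 72 h. Readouts were CellTox Green fluorescence (485/520 nm) for cell death and then CellTiter-Glo luminescence for viability, with each plate normalised to 0.1 % DMSO and a positive kill control.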

CAL-85-1 [2] = tested on: CAL-85-1
Outline: as §1

HCC1599 [3] = tested on: HCC1599
Outline: as §1

HCC1937 [4] = tested on: HCC1937
Outline: as §1

HDQ-P1 [5] = tested on: HDQ-P1
Outline: as §1

MDA-MB-453 [6] = tested on: MDA-MB-453
Outline: as §1

BT-474 [7] = tested on: BT-474
Outline: (§2)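 Plates of 384 wells holding compound in 5 µl medium received breast cancer cell lines in 20 µl suspension and were incubated 72 h. CellTiter-Blue (2.5 µl, 2 h, 37 °C) was used for viability, read at 560/590 nm, and every plate was normalised to vehicle and a positive kill control and assessed by Z'-factor. The EC50 derives from a percent-inhibition dose-response curve fit censored at the highest concentration, leaving out rows whose drug sensitivity score was zero.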

BT-549 [8] = tested on: BT-549
Outline: as §2

CAL-120 [9] = tested on: CAL-120
Outline: as §2

HCC1143 [10] = tested on: HCC1143
Outline: as §2

HCC1599 [11] = tested on: HCC1599; remark: listed apart in the source
Outline: as §2

HCC1937 [12] = tested on: HCC1937; remark: listed apart in the source
Outline: as §2

Hs578T [13] = tested on: Hs578T
Outline: as §2

MDA-MB-231 [14] = tested on: MDA-MB-231
Outline: as §2

MDA-MB-436 [15] = tested on: MDA-MB-436
Outline: as §2

MDA-MB-468 [16] = tested on: MDA-MB-468
Outline: as §2

MFM-223 [17] = tested on: MFM-223
Outline: as §2

SK-BR-3 = tested on: SK-BR-3
Outline: as §2

BT-474 [18] = tested on: BT-474; remark: listed apart in the source
Description: (§3)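 Drug sensitivity and resistance testing (DSRT) of breast cancer cell lines in 384-well plates, 5 concentrations in 10-fold dilutions over a compound-specific 10,000-fold range. After 72 h, cytotoxicity was read by CellTox Green fluorescence and viability by CellTiter-Glo luminescence (multiplexed), normalised to DMSO and benzethonium chloride controls. EC50 is the inflection point of the fitted dose-response curve (bottom asymptote free, so it can be relative for partial curves) and is censored at the highest tested concentration. Rows with DSS 0 (no meaningful response) were excluded.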

CAL-148 [19] = tested on: CAL-148; remark: listed apart in the source
Description: as §3

CAL-51 = tested on: CAL-51
Description: as §3

CAL-85-1 [20] = tested on: CAL-85-1; remark: listed apart in the source
Description: as §3

HCC1143 [21] = tested on: HCC1143; remark: listed apart in the source
Description: as §3

HDQ-P1 [22] = tested on: HDQ-P1; remark: listed apart in the source
Description: as §3

MFM-223 [23] = tested on: MFM-223; remark: listed apart in the source
Description: as §3

MCF-10A = tested on: MCF-10A
Description: as §3

CAL-120 [24] = tested on: CAL-120; remark: listed apart in the source
Description: as §3

HCC1599 [25] = tested on: HCC1599; remark: listed apart in the source
Description: as §3

HCC1937 [26] = tested on: HCC1937; remark: listed apart in the source
Description: as §3

MDA-MB-231 [27] = tested on: MDA-MB-231; remark: listed apart in the source
Description: as §3

MDA-MB-436 [28] = tested on: MDA-MB-436; remark: listed apart in the source
Description: as §3

MDA-MB-468 [29] = tested on: MDA-MB-468; remark: listed apart in the source
Description: as §3

MDA-MB-453 [30] = tested on: MDA-MB-453; remark: listed apart in the source
Description: as §3

DU-4475 = tested on: DU-4475
Description: as §3

BT-549 [31] = tested on: BT-549; remark: listed apart in the source
Description: as §3

Hs578T [32] = tested on: Hs578T; remark: listed apart in the source
Description: as §3

EC50, CellTiter-Glo (HCC1599 [3]) | EC50, CellTiter-Glo (HCC1937 [4]) | EC50, CellTiter-Glo (MDA-MB-453 [6]) | EC50, CellTiter-Blue viability (BT-474 [7]) | EC50, CellTiter-Blue viability (BT-549 [8]) | EC50, CellTiter-Blue viability (HCC1143 [10]) | EC50, CellTiter-Blue viability (HCC1599 [11]) | EC50, CellTiter-Blue viability (HCC1937 [12]) | EC50, CellTiter-Blue viability (MDA-MB-231 [14]) | EC50, CellTiter-Blue viability (MDA-MB-436 [15]) | EC50, CellTiter-Blue viability (MDA-MB-468 [16]) | EC50, CellTiter-Blue viability (SK-BR-3) | SMILES | EC50, CellTiter-Glo (CAL-148 [1]) | EC50, CellTiter-Glo (CAL-85-1 [2]) | EC50, CellTiter-Glo (HDQ-P1 [5]) | EC50, CellTiter-Blue viability (CAL-120 [9]) | EC50, CellTiter-Blue viability (Hs578T [13]) | EC50, CellTiter-Blue viability (MFM-223 [17]) | EC50, CellTox Green (BT-474 [18]) | EC50, CellTox Green (CAL-148 [19]) | EC50, CellTox Green (CAL-51) | EC50, CellTox Green (CAL-85-1 [20]) | EC50, CellTox Green (HCC1143 [21]) | EC50, CellTox Green (HDQ-P1 [22]) | EC50, CellTox Green (MFM-223 [23]) | EC50, CellTox Green (MCF-10A) | EC50, CellTox Green (CAL-120 [24]) | EC50, CellTox Green (HCC1599 [25]) | EC50, CellTox Green (HCC1937 [26]) | EC50, CellTox Green (MDA-MB-231 [27]) | EC50, CellTox Green (MDA-MB-436 [28]) | EC50, CellTox Green (MDA-MB-468 [29]) | EC50, CellTox Green (MDA-MB-453 [30]) | EC50, CellTox Green (DU-4475) | EC50, CellTox Green (BT-549 [31]) | EC50, CellTox Green (Hs578T [32])
1340 nM | 3130 nM | 226 nM | 318 nM | 386 nM | 306 nM | 103 nM | 214 nM | 90.4 nM | 783 nM | 704 nM | 81.8 nM | Cc1c(CN2CCN(C(=O)[C@H](C)O)CC2)sc2c(N3CCOCC3)nc(-c3cnc(N)nc3)nc12 [GDC-0980] | 701 nM | 628 nM | 452 nM | 181 nM | 257 nM | 139 nM | 1390 nM | 820 nM | 2320 nM | 3200 nM | 1460 nM | 8340 nM | 1000 nM |  |  |  |  |  |  |  |  |  |  | 
 | 3840 nM | 508 nM |  |  |  |  |  |  |  |  |  | CS(=O)(=O)N1CCN(Cc2cc3nc(-c4cccc5[nH]ncc45)nc(N4CCOCC4)c3s2)CC1 [Pictilisib] | 1350 nM | 997 nM | 657 nM |  |  |  | 9300 nM | 293 nM | 2090 nM | 2150 nM |  |  | 955 nM | 270 nM |  |  |  |  |  |  |  |  |  | 
189 nM | 2740 nM | 1830 nM |  | 77.1 nM | 652 nM | 102 nM | 30.3 nM | 612 nM | 110 nM | 71.9 nM | 52 nM | CC[C@@]1(O)C(=O)OCc2c1cc1n(c2=O)Cc2cc3c(CN(C)C)c(O)ccc3nc2-1 [Topotecan] | 221 nM | 755 nM |  | 79.9 nM |  |  | > 10000 nM | 55.6 nM | 195 nM | 913 nM |  | > 10000 nM |  | 1880 nM | 2570 nM | 748 nM | 3070 nM | 369 nM | 2720 nM | 2240 nM |  |  |  | 
 | 5190 nM | 6910 nM |  |  |  |  |  |  |  |  |  | CC/C(=C(\c1ccc(O)cc1)c1ccc(OCCN(C)C)cc1)c1ccccc1 [4-hydroxytamoxifen] |  | 3340 nM |  |  |  |  |  |  |  | 7760 nM |  |  |  |  | 9170 nM |  | 1930 nM | 4260 nM | 2800 nM | 92.3 nM | 9550 nM |  |  | 
 | 3070 nM |  |  |  |  |  |  |  |  |  |  | O=C(NC[C@H](O)CO)c1ccncc1Nc1ccc(I)cc1F [Pimasertib] | 1010 nM | 1090 nM | 18.6 nM |  |  |  | 2840 nM |  |  | 1340 nM |  |  |  |  | 783 nM |  |  | 16.6 nM |  |  |  | 48.1 nM |  | 
2110 nM | 552 nM | 612 nM |  |  |  |  |  |  |  |  |  | CC(=O)OC[C@H]1O[C@@H]([S-])[C@H](OC(C)=O)[C@@H](OC(C)=O)[C@@H]1OC(C)=O.CCP(CC)CC.[Au+] [Auranofin] | 2190 nM | 723 nM | 1120 nM |  |  |  | 646 nM | 2060 nM | 186 nM | 917 nM | > 2500 nM | 694 nM | 958 nM |  | > 2500 nM |  | 926 nM | 1330 nM |  | 412 nM | 1590 nM |  | 712 nM | 
3020 nM | 567 nM | 1200 nM | 5750 nM | 2620 nM | 1770 nM | 873 nM | 1960 nM | 2740 nM | 2020 nM | 1930 nM | 1050 nM | Nc1ccccc1NC(=O)c1ccc(CNc2nccc(-c3cccnc3)n2)cc1 [Mocetinostat] | 2270 nM | 2710 nM | 5520 nM | 75.7 nM | 2670 nM | 4200 nM | 6830 nM | 5350 nM | 1600 nM | 2380 nM | 3360 nM | 597 nM |  |  | 4510 nM | 2100 nM | > 10000 nM | 1720 nM | 1340 nM | 961 nM |  |  | 7700 nM | 629 nM
 |  |  |  | 1130 nM | 2290 nM | 38.1 nM | 344 nM | 1180 nM | 1480 nM | 71.9 nM |  | CO[C@@H](C(=O)N1Cc2[nH]nc(NC(=O)c3ccc(N4CCN(C)CC4)cc3)c2C1)c1ccccc1 [Danusertib] | 448 nM |  | 7430 nM | 335 nM | 1040 nM |  |  |  | 348 nM |  |  | 6850 nM |  | > 10000 nM | 5630 nM |  |  |  | 216 nM | 10.2 nM |  |  | > 10000 nM | 477 nM
71.3 nM | 199 nM | 11 nM |  |  |  |  |  |  |  |  |  | Cn1cc(CNCC2CCN(c3ncc(C(=O)NO)cn3)CC2)c2ccccc21 [Quisinostat] | 28.3 nM | 34.1 nM | 148 nM |  |  |  | 36 nM | 52.1 nM | 116 nM | 18.5 nM | 134 nM | 396 nM | 58.8 nM |  | 65.6 nM | 106 nM |  | 72.5 nM |  | 5.87 nM | > 1000 nM | 95.6 nM |  | 60.3 nM
 | 54.7 nM |  |  | 58.5 nM | 34.5 nM |  |  | 16.8 nM | 78.5 nM |  |  | Cc1nc(Nc2ncc(C(=O)Nc3c(C)cccc3Cl)s2)cc(N2CCN(CCO)CC2)n1 [Dasatinib] |  | 79.4 nM | 18.3 nM | 56.3 nM | 49.7 nM | 427 nM |  |  | 10.3 nM | 108 nM |  |  |  | 599 nM |  |  |  | 515 nM |  |  |  |  | 162 nM | 277 nM
